Test results reported in the NIST ThermoML archive (doi:10.1016/j.fluid.2011.06.011).

Test: xn = mol fraction of the nth substance listed
Conditions: Liquid; for speed of sound: Sing-around technique in a fixed-path interferometer; for mass density: Vibrating tube method

C=CC(C)(O)CCC=C(C)C (stereo not drawn) [3,7-dimethyl-1,6-octadien-3-ol] + CCO
Conditions	mass density, 313.15 K [kg/m3]	mass density, 328.15 K [kg/m3]	speed of sound, 313.15 K [m/s]	speed of sound, 328.15 K [m/s]
101 kPa, x1 = 0.0493	–	–	–	1070.8
101 kPa, x1 = 0.0506	784.31	770.91	–	–
101 kPa, x1 = 0.0507	–	–	1122.4	–
101 kPa, x1 = 0.0996	–	–	1142.3	–
101 kPa, x1 = 0.1008	794.24	780.72	–	1095.1
101 kPa, x1 = 0.1969	808.41	795.22	1177.2	1125
101 kPa, x1 = 0.2884	818.41	805.21	–	–
101 kPa, x1 = 0.2959	–	–	1200.7	1147.3
101 kPa, x1 = 0.3918	–	–	1218.2	–
101 kPa, x1 = 0.3957	826.66	813.44	–	1163.9
101 kPa, x1 = 0.4803	831.36	818.17	–	–
101 kPa, x1 = 0.4834	–	–	–	1173.9
101 kPa, x1 = 0.4854	–	–	1230.3	–
101 kPa, x1 = 0.593	835.94	822.82	1240	1185.1
101 kPa, x1 = 0.6838	838.63	825.57	1247.1	1193.8
101 kPa, x1 = 0.7832	–	–	1252.8	1199
101 kPa, x1 = 0.8438	841.86	828.96	–	–
101 kPa, x1 = 0.8633	–	–	1257	1203.2
101 kPa, x1 = 0.8941	842.75	829.77	–	–
101 kPa, x1 = 0.9286	843.29	830.31	1259.5	1206.3
101 kPa, x1 = 1	844.29	831.31	1260.8	1207.6
20000 kPa, x1 = 0.0511	801	789.2	–	–
20000 kPa, x1 = 0.1003	809.9	798.3	–	–
20000 kPa, x1 = 0.1962	823	811.4	–	–
20000 kPa, x1 = 0.2989	833.1	821.4	–	–
20000 kPa, x1 = 0.3996	840	828.3	–	–
20000 kPa, x1 = 0.5015	845.2	833.5	–	–
20000 kPa, x1 = 0.5982	848.8	837.1	–	–
20000 kPa, x1 = 0.6898	851.6	839.9	–	–
20000 kPa, x1 = 0.7929	854.1	842.5	–	–
20000 kPa, x1 = 0.8885	856	844.4	–	–
20000 kPa, x1 = 0.9435	856.9	845.3	–	–
20000 kPa, x1 = 1	857.6	846	–	–
25000 kPa, x1 = 0.0511	804.8	793.4	–	–
25000 kPa, x1 = 0.1003	813.7	802.2	–	–
25000 kPa, x1 = 0.1962	826.7	815.2	–	–
25000 kPa, x1 = 0.2989	836.6	825.1	–	–
25000 kPa, x1 = 0.3996	843.5	831.9	–	–
25000 kPa, x1 = 0.5015	848.6	837	–	–
25000 kPa, x1 = 0.5982	852.2	840.6	–	–
25000 kPa, x1 = 0.6898	854.9	843.4	–	–
25000 kPa, x1 = 0.7929	857.4	845.9	–	–
25000 kPa, x1 = 0.8885	859.3	847.8	–	–
25000 kPa, x1 = 0.9435	860.1	848.6	–	–
25000 kPa, x1 = 1	860.9	849.3	–	–
30000 kPa, x1 = 0.0511	808.5	797.1	–	–
30000 kPa, x1 = 0.1003	817.2	806	–	–
30000 kPa, x1 = 0.1962	830.1	818.8	–	–
30000 kPa, x1 = 0.2989	839.9	828.6	–	–
30000 kPa, x1 = 0.3996	846.7	835.3	–	–
30000 kPa, x1 = 0.5015	851.7	840.4	–	–
30000 kPa, x1 = 0.5982	855.3	843.9	–	–
30000 kPa, x1 = 0.6898	858	846.7	–	–
30000 kPa, x1 = 0.7929	860.5	849.2	–	–
30000 kPa, x1 = 0.8885	862.3	851	–	–
30000 kPa, x1 = 0.9435	863.1	851.9	–	–
30000 kPa, x1 = 1	863.9	852.6	–	–
35000 kPa, x1 = 0.0511	812	800.7	–	–
35000 kPa, x1 = 0.1003	820.6	809.6	–	–
35000 kPa, x1 = 0.1962	833.3	822.3	–	–
35000 kPa, x1 = 0.2989	843	832	–	–
35000 kPa, x1 = 0.3996	849.6	838.6	–	–
35000 kPa, x1 = 0.5015	854.7	843.6	–	–
35000 kPa, x1 = 0.5982	858.3	847.2	–	–
35000 kPa, x1 = 0.6898	861	849.9	–	–
35000 kPa, x1 = 0.7929	863.4	852.3	–	–
35000 kPa, x1 = 0.8885	865.3	854.2	–	–
35000 kPa, x1 = 0.9435	866.1	855	–	–
35000 kPa, x1 = 1	866.8	855.7	–	–
40000 kPa, x1 = 0.0511	815.4	804.6	–	–
40000 kPa, x1 = 0.1003	824	813.1	–	–
40000 kPa, x1 = 0.1962	836.5	825.6	–	–
40000 kPa, x1 = 0.2989	846.2	835.2	–	–
40000 kPa, x1 = 0.3996	852.8	841.8	–	–
40000 kPa, x1 = 0.5015	857.8	846.7	–	–
40000 kPa, x1 = 0.5982	861.3	850.3	–	–
40000 kPa, x1 = 0.6898	864	853	–	–
40000 kPa, x1 = 0.7929	866.3	855.4	–	–
40000 kPa, x1 = 0.8885	868.2	857.2	–	–
40000 kPa, x1 = 0.9435	869	858.1	–	–
40000 kPa, x1 = 1	869.7	858.8	–	–
